{
  "source": "ChEMBL document CHEMBL5356998",
  "about": "“Diaporaustalides A-L, Austalide Meroterpenoids from a Plant Endophytic Diaporthe sp” (J Nat Prod, 2024)",
  "key": {"[1]": {"tested_on": "HeLa", "test": "Cytotoxicity against human HeLa cells by MTT assay", "type": "functional, cell-based"}, "[2]": {"tested_on": "Splenocyte", "test": "Immunosuppressive activity in mouse splenocyte assessed as reduction in ConA-induced mouse T-cell proliferation", "type": "functional, cell-based"}, "[3]": {"test": "Selectivity index, ratio of CC50 for cytotoxicity against mouse splenocyte to IC50 for immunosuppressive activity in mouse splenocyte assessed as reduction in ConA-induced mouse T-cell proliferation", "details": "mouse splenocytes, read-out: Ratio CC50/IC50"}, "[4]": {"test": "Cytotoxicity against mouse splenocyte by MTT assay", "type": "toxicity, cell-based", "details": "mouse splenocytes"}, "[5]": {"tested_on": "Splenocyte", "test": "Immunosuppressive activity in mouse splenocyte assessed as reduction in LPS-induced mouse B-cell proliferation", "type": "functional, cell-based"}, "[6]": {"test": "Selectivity index, ratio of CC50 for cytotoxicity against mouse splenocyte to IC50 for immunosuppressive activity in mouse splenocyte assessed as reduction in LPS-induced mouse B-cell proliferation", "details": "mouse splenocytes, read-out: Ratio CC50/IC50"}, "[7]": {"tested_on": "B-cell", "test": "Downregulation od IL-6 expression in LPS induced B cell (unknown origin) incubated for 48 hrs by ELISA method", "type": "functional, cell-based", "details": "dose 1-25 µM"}, "[8]": {"molecular_target": "Alpha-glucosidase (Saccharomyces cerevisiae S288c, UniProt P53341+P38158+P07265)", "test": "Inhibition of Saccharomyces cerevisiae alpha glucosidase using p-nitrophenyl glucopyranoside as substrate preincubated for 10 mins followed by substrate addition and measured after 20 mins by microplate reader analysis", "type": "protein assay"}},
  "data": [
    {"smiles": "COc1c2c(c(C=O)c3c1C(=O)OC3)O[C@]1(C)CC[C@H]3C(C)(C)[C@@H](O)CC[C@]3(C)[C@H]1C2", "values": [
      {"measurement": "IC50", "setting": "[1]", "value": 9.6, "unit": "µM"},
      {"measurement": "IC50", "setting": "[2]", "value": 35, "unit": "µM"},
      {"measurement": "selectivity ratio", "setting": "[3]", "value": "> 1.4"},
      {"measurement": "CC50", "setting": "[4]", "value": "> 50", "unit": "µM"},
      {"measurement": "IC50", "setting": "[5]", "value": "> 50", "unit": "µM"}
    ]},
    {"smiles": "COc1c2c(c(C=O)c3c1C(=O)OC3)O[C@]1(C)CC[C@@]3(O)[C@@](C)(C(=O)O)CCC[C@]3(C)[C@H]1C2", "values": [
      {"measurement": "IC50", "setting": "[2]", "value": 35, "unit": "µM"},
      {"measurement": "selectivity ratio", "setting": "[3]", "value": "> 1.4"},
      {"measurement": "CC50", "setting": "[4]", "value": "> 50", "unit": "µM"},
      {"measurement": "IC50", "setting": "[5]", "value": "> 50", "unit": "µM"}
    ]},
    {"smiles": "COc1c2c(c(C=O)c3c1C(=O)OC3)O[C@]1(C)CC[C@@]3(O)C(C)(C)[C@@H](O)CC[C@]3(C)[C@H]1C2", "values": [
      {"measurement": "IC50", "setting": "[2]", "value": 28, "unit": "µM"},
      {"measurement": "selectivity ratio", "setting": "[3]", "value": "> 1.7"},
      {"measurement": "CC50", "setting": "[4]", "value": "> 50", "unit": "µM"},
      {"measurement": "IC50", "setting": "[5]", "value": "> 50", "unit": "µM"}
    ]},
    {"smiles": "COc1c(C)c2c(c(O)c1C/C=C(\\C)CCC(=O)OCCN1CCOCC1)C(=O)OC2", "note": "[MYCOPHENOLATE MOFETIL]", "values": [
      {"measurement": "IC50", "setting": "[5]", "value": 1, "unit": "µM"}
    ]},
    {"smiles": "COc1c2c(c(C=O)c3c1C(=O)OC3)O[C@]1(C)[C@H](O)C[C@@]3(O)C(C)(C)CCC[C@]3(C)[C@H]1C2", "values": [
      {"measurement": "IC50", "setting": "[2]", "value": 22, "unit": "µM"},
      {"measurement": "selectivity ratio", "setting": "[3]", "value": "> 1"},
      {"measurement": "CC50", "setting": "[4]", "value": 23, "unit": "µM"},
      {"measurement": "selectivity ratio", "setting": "[6]", "value": 2.7},
      {"measurement": "IC50", "setting": "[5]", "value": 8.5, "unit": "µM"}
    ]},
    {"smiles": "COc1c2c(c(C=O)c3c1C(=O)OC3)O[C@]1(C)CC[C@H]3C(C)(C)[C@H](O)CC[C@]3(C)[C@H]1C2", "values": [
      {"measurement": "Activity", "setting": "[7]", "value": "Dose-Dependent Effect"},
      {"measurement": "IC50", "setting": "[2]", "value": 11, "unit": "µM"},
      {"measurement": "selectivity ratio", "setting": "[3]", "value": 2.2},
      {"measurement": "CC50", "setting": "[4]", "value": 24, "unit": "µM"},
      {"measurement": "selectivity ratio", "setting": "[6]", "value": 3.6},
      {"measurement": "IC50", "setting": "[5]", "value": 6.7, "unit": "µM"}
    ]},
    {"smiles": "COc1c2c(c(C=O)c3c1C(=O)OC3)O[C@]1(C)CC[C@@]3(O)C(C)(C)CCC[C@]3(C)[C@H]1C2", "values": [
      {"measurement": "Activity", "setting": "[7]", "value": "Dose-Dependent Effect"},
      {"measurement": "IC50", "setting": "[8]", "value": 61, "unit": "µM"},
      {"measurement": "IC50", "setting": "[2]", "value": 42, "unit": "µM"},
      {"measurement": "selectivity ratio", "setting": "[3]", "value": 1.1},
      {"measurement": "CC50", "setting": "[4]", "value": "> 50", "unit": "µM"},
      {"measurement": "selectivity ratio", "setting": "[6]", "value": "> 13"},
      {"measurement": "IC50", "setting": "[5]", "value": 3.8, "unit": "µM"}
    ]},
    {"smiles": "COc1c2c(c(C(OC)OC)c3c1C(=O)OC3)O[C@]1(C)CC[C@@]3(O)C(C)(C)CCC[C@]3(C)[C@H]1C2", "values": [
      {"measurement": "IC50", "setting": "[8]", "value": 92, "unit": "µM"},
      {"measurement": "IC50", "setting": "[2]", "value": "> 50", "unit": "µM"},
      {"measurement": "CC50", "setting": "[4]", "value": "> 50", "unit": "µM"},
      {"measurement": "IC50", "setting": "[5]", "value": 44, "unit": "µM"}
    ]},
    {"smiles": "COc1c2c(c(C=O)c3c1C(=O)OC3)O[C@]1(C)CC[C@@]3(O)C(C)(C)[C@H](O)CC[C@]3(C)[C@H]1C2", "values": [
      {"measurement": "IC50", "setting": "[2]", "value": "> 50", "unit": "µM"},
      {"measurement": "CC50", "setting": "[4]", "value": "> 50", "unit": "µM"},
      {"measurement": "IC50", "setting": "[5]", "value": "> 50", "unit": "µM"}
    ]},
    {"smiles": "COc1c2c(c(C=O)c3c1C(=O)OC3)O[C@]1(C)CC[C@@]3(O)[C@@](C)(CO)CCC[C@]3(C)[C@H]1C2", "values": [
      {"measurement": "IC50", "setting": "[2]", "value": 25, "unit": "µM"},
      {"measurement": "selectivity ratio", "setting": "[3]", "value": "> 2"},
      {"measurement": "CC50", "setting": "[4]", "value": "> 50", "unit": "µM"},
      {"measurement": "IC50", "setting": "[5]", "value": "> 50", "unit": "µM"}
    ]},
    {"smiles": "COc1c2c(c(C=O)c3c1C(=O)OC3)O[C@]1(C)CC[C@@]3(O)[C@@](C)(COC(C)=O)CCC[C@]3(C)[C@H]1C2", "values": [
      {"measurement": "IC50", "setting": "[8]", "value": 166, "unit": "µM"},
      {"measurement": "IC50", "setting": "[2]", "value": 28, "unit": "µM"},
      {"measurement": "selectivity ratio", "setting": "[3]", "value": "> 1.4"},
      {"measurement": "CC50", "setting": "[4]", "value": "> 40", "unit": "µM"},
      {"measurement": "selectivity ratio", "setting": "[6]", "value": "> 2.3"},
      {"measurement": "IC50", "setting": "[5]", "value": 17, "unit": "µM"}
    ]},
    {"smiles": "COc1c2c(c(C=O)c3c1C(=O)OC3)O[C@]1(C)CC[C@@]3(O)[C@@](C)(C=O)CCC[C@]3(C)[C@H]1C2", "values": [
      {"measurement": "IC50", "setting": "[2]", "value": 37, "unit": "µM"},
      {"measurement": "selectivity ratio", "setting": "[3]", "value": 1.2},
      {"measurement": "CC50", "setting": "[4]", "value": 43, "unit": "µM"},
      {"measurement": "selectivity ratio", "setting": "[6]", "value": 1.1},
      {"measurement": "IC50", "setting": "[5]", "value": 39, "unit": "µM"}
    ]},
    {"smiles": "COc1c2c(c(C=O)c3c1C(=O)OC3)O[C@]1(C)CC[C@@]3(O)C(C)(C)CC[C@@H](O)[C@]3(C)[C@H]1C2", "values": [
      {"measurement": "IC50", "setting": "[2]", "value": "> 50", "unit": "µM"},
      {"measurement": "CC50", "setting": "[4]", "value": "> 50", "unit": "µM"},
      {"measurement": "selectivity ratio", "setting": "[6]", "value": "> 1.6"},
      {"measurement": "IC50", "setting": "[5]", "value": 31, "unit": "µM"}
    ]}
  ]
}
